In US10870647B2, “Imidazopyridine derivative, method for preparing same, and pharmaceutical composition containing same as active ingredient for preventing or treating cancer” (DAEGU-GYEONGBUK MEDICAL INNOVATION FOUNDATION, priority 2016, dated 2020):

How the values were obtained:
Test in all cases: Kinase selectivity, scanMAX Kinase assay panel (DiscoverX), % control at 1 uM
Format in all cases: binding
[1] = target: T1, scanMAX Kinase assay panel (Homo sapiens, UniProt Q8TDR2); details: STK35; 1 uM; read-out: Percent Control (%)
T1 construct: purchased DiscoverX
Outline: (§1)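 Compounds were tested at 1 uM in DMSO against each enzyme in the panel. Percent control was calculated as (compound − positive control)/(negative control − positive control) × 100, and a compound was scored active on a kinase when this value fell below 35.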

[2] = target: T2, scanMAX Kinase assay panel (Homo sapiens, UniProt P23443); details: S6K1; 1 uM; read-out: Percent Control (%)
T2 construct: purchased DiscoverX
Outline: as §1

[3] = target: T3, scanMAX Kinase assay panel (Homo sapiens, UniProt Q14164); details: IKK-epsilon; 1 uM; read-out: Percent Control (%)
T3 construct: purchased DiscoverX
T3 sequence (Q14164 1-716): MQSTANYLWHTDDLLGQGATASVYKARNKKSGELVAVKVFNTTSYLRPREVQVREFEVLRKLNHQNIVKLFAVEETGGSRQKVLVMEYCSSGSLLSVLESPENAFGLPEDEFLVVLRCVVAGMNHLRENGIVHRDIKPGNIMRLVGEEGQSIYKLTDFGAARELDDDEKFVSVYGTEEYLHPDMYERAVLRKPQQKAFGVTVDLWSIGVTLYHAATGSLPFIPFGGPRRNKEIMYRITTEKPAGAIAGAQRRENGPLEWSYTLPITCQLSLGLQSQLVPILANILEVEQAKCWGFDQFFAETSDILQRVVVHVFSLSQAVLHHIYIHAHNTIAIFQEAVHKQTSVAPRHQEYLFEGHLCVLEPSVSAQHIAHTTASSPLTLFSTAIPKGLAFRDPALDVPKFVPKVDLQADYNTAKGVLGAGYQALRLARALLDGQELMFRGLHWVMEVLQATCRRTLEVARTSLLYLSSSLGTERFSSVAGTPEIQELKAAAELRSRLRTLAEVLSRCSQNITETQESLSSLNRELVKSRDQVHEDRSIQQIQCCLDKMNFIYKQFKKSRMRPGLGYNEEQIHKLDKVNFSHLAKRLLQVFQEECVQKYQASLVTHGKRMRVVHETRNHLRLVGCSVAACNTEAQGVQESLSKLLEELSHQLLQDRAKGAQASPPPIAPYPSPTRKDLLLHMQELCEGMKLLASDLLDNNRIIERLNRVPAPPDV
Outline: as §1

[4] = target: T4, scanMAX Kinase assay panel (Homo sapiens, UniProt Q9UF33); details: EPHA6; 1 uM; read-out: Percent Control (%)
T4 construct: purchased DiscoverX
T4 sequence (Q9UF33 23-1036): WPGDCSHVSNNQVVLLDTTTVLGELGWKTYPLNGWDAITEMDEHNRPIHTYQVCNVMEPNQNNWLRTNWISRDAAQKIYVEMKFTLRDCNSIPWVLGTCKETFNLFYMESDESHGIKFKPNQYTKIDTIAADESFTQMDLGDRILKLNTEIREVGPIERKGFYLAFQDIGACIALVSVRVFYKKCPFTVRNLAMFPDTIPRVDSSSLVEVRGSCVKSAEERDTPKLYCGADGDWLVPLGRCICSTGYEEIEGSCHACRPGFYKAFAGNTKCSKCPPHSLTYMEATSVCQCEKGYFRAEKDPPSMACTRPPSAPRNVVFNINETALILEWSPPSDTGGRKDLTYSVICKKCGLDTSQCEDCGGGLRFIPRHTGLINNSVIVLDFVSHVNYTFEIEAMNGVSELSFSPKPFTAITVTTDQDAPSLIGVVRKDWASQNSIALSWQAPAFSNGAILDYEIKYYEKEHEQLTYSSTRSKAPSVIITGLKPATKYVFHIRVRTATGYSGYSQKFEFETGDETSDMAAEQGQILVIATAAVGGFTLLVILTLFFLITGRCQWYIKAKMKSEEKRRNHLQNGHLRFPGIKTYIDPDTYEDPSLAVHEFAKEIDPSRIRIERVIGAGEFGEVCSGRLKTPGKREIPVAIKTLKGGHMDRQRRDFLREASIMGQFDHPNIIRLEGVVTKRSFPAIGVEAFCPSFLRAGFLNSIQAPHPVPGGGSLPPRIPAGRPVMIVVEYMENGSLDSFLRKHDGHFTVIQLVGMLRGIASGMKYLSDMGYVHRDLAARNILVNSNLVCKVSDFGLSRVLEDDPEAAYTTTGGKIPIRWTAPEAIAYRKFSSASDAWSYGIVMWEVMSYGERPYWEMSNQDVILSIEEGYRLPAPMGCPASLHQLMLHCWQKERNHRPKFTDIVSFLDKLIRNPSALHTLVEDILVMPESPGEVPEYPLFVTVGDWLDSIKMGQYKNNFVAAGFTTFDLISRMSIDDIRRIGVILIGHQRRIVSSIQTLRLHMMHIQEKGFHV
Outline: as §1

T1 sequence (Q8TDR2 whole entry): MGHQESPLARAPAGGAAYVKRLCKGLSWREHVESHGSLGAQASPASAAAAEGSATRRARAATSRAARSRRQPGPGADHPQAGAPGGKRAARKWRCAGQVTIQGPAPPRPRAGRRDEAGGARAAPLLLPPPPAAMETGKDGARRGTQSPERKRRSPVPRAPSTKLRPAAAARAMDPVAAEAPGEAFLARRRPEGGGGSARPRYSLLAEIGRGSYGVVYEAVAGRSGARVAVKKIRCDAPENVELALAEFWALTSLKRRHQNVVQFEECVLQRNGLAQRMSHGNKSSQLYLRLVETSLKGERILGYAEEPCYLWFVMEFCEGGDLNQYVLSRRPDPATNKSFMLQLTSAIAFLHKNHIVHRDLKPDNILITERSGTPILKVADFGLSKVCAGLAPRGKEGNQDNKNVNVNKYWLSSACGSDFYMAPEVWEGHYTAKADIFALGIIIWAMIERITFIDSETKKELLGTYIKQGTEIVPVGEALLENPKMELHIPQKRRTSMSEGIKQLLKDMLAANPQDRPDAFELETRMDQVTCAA
T2 sequence (P23443 whole entry): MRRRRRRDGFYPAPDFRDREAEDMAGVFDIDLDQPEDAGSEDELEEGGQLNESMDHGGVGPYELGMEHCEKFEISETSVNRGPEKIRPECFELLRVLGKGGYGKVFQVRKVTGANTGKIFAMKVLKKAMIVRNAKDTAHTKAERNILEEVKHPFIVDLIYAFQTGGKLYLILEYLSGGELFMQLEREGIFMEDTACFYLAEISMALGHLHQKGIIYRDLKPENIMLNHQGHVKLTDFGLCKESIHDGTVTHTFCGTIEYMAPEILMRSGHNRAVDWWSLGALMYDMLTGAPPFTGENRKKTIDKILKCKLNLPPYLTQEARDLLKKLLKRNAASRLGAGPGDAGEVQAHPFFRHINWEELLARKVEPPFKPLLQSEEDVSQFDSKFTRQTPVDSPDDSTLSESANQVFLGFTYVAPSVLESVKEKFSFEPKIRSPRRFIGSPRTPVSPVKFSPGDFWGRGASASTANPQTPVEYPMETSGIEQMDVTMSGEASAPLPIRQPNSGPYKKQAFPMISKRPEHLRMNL

Row | SMILES | remaining binding at 1 µM [1] [%] | remaining binding at 1 µM [2] [%] | remaining binding at 1 µM [3] [%] | remaining binding at 1 µM [4] [%]
1 | Cc1ccc(C(=O)Nc2ccc(CN3CCN(C)CC3)c(C(F)(F)F)c2)cc1C#Cc1cnc2c(Nc3cnn(C)c3)cccn12 [Example 1, 4-methyl-3-((8-((1-methyl-1H-pyrazol-4-yl)amino)imidazo[1,2-a]pyridin-3-yl)ethynyl)-N-(4-((4-methylpiperazin-1-yl)methyl)-3-(trifluoromethyl)phenyl)benzamide] | 33 | 14 | 66 | 2
2 | Cc1cn(-c2cc(NC(=O)c3ccc(C)c(C#Cc4cnc5c(Nc6cnn(C)c6)cccn45)c3)cc(C(F)(F)F)c2)cn1 [Example 12, 4-methyl-N-(3-(4-methyl-1H-imidazol-1-yl)-5-(trifluoromethyl)phenyl)-3-((8-((1-methyl-1H-pyrazol-4-yl)amino)imidazo[1,2-a]pyridin-3-yl)ethynyl)benzamide] | 58 | 100 | 100 | 19
3 | Cc1ccc(NC(=O)C2(C(=O)Nc3ccc(F)cc3)CC2)cc1C#Cc1cnc2c(Nc3cnn(C(C)C)c3)cccn12 [Example 78] | 100 | 100 | 100 | 90
